What all share (type): binding
Assay [1] addresses GluN1 (GluN1/GluN2B NMDA receptor) (Xenopus laevis, UniProt A0A1L8F5J9+A7XY94).
In assay [2] the target is GluN1 (GluN1/GluN2B ∆ATD NMDA receptor) (Xenopus laevis, UniProt A0A1L8F5J9+A7XY94, A0A1L8F5J9:DEL23-393/A0A1L8F5J9:G610R). Description: X-ray crystal structure.
In assay [3] the target is GluN1 (GluN1/GluN2B NMDA receptor) (Xenopus laevis, UniProt A0A1L8F5J9+A7XY94, A0A1L8F5J9:G610R). The assay is described as follows: competition with 3H-MK-801, scintillation proximity assay. (SPA uses beads or plates that emit light when radiolabelled molecules are held near them.)

`C[C@]12N[C@H](Cc3ccccc31)c1ccccc12` [MK-801]: the values for the Kd in assay [1] and in assay [2] were 0.111 ± 0.0085 µM and 1.6 ± 0.3 µM, respectively.

As to `CC12CC3CC(C)(C1)CC(N)(C3)C2` [memantine], the Ki (commonly a measure of affinity in units of concentration, obtained from inhibition or displacement) in assay [3] is ~147 µM.
